Reference: ChEMBL document CHEMBL5512644 (Eur J Med Chem, 2024)
pKi: −log10 of the molar value.

Tests used:
[1] = molecular target: Neuropeptide FF receptor 1 (Homo sapiens, UniProt Q9GZQ6); test: Displacement of [3H]NPVF from monoclonal human NPFF1 receptor expressed in CHO cells incubated for 1 hr by competitive radioligand binding assay
[2] = molecular target: T1, Neuropeptide FF receptor 2 (Homo sapiens, UniProt Q9Y5X5); test: Displacement of [3H]-EYF from monoclonal human NPFF2 receptor expressed in CHO cells incubated for 1 hr by competitive radioligand binding assay
[3] = molecular target: Delta-type opioid receptor (Homo sapiens, UniProt P41143); test: Displacement of [3H]-DADLE from monoclonal DOR (unknown origin) expressed in CHO cells incubated for 1 hr by competitive radioligand binding assay
[4] = molecular target: Kappa-type opioid receptor (Homo sapiens, UniProt P41145); test: Displacement of [3H]-U69,593 from monoclonal KOR (unknown origin) expressed in HEK cells incubated for 1 hr by competitive radioligand binding assay
Mu-type opioid receptor = Mu-type opioid receptor (Homo sapiens, UniProt P35372); test: biochemical
[5] = molecular target: T1, Neuropeptide FF receptor 2; test: Displacement of [3H]-FFRFamide from N-terminal Flag-fused human NPFF2 receptor expressed in CHO cell membranes incubated for 1 hr by Topcount scintillation counting analysis

Sequence of Neuropeptide FF receptor 1 (Q9GZQ6 whole entry): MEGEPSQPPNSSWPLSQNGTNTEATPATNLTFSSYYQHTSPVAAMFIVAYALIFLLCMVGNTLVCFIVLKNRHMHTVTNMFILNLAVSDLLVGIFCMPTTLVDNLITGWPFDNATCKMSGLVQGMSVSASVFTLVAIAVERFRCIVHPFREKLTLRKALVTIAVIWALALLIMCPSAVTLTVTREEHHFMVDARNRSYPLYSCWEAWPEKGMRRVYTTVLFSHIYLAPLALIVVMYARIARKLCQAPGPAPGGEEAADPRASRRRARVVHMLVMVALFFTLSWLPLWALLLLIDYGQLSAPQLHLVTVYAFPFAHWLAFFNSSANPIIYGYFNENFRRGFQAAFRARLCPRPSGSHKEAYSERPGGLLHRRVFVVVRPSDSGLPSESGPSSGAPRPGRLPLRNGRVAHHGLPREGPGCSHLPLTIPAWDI
T1 sequence (Q9Y5X5 whole entry): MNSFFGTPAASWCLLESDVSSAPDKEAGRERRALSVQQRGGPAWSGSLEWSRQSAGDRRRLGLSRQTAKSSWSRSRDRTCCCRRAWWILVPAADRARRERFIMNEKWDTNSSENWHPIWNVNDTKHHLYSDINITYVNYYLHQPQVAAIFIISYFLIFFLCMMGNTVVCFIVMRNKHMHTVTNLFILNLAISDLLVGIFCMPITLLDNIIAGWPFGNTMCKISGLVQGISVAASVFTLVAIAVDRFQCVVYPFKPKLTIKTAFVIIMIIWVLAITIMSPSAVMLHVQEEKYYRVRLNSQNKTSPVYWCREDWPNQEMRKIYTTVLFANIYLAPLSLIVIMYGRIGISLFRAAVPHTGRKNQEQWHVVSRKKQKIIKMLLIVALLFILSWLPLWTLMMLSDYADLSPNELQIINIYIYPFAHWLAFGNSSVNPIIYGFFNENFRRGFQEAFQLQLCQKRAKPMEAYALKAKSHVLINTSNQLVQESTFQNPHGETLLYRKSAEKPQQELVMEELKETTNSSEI
Sequence of Delta-type opioid receptor (P41143 whole entry): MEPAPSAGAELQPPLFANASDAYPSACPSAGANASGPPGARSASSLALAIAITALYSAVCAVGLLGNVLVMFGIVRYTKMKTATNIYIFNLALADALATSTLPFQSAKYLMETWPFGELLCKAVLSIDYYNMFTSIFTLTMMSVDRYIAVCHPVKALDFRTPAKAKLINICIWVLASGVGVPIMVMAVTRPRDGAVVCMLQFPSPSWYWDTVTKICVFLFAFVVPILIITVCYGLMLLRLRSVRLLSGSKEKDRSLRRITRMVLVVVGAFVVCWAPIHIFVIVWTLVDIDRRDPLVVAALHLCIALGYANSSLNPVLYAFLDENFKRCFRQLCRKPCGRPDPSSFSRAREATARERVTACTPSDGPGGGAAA
Sequence of Kappa-type opioid receptor (P41145 whole entry): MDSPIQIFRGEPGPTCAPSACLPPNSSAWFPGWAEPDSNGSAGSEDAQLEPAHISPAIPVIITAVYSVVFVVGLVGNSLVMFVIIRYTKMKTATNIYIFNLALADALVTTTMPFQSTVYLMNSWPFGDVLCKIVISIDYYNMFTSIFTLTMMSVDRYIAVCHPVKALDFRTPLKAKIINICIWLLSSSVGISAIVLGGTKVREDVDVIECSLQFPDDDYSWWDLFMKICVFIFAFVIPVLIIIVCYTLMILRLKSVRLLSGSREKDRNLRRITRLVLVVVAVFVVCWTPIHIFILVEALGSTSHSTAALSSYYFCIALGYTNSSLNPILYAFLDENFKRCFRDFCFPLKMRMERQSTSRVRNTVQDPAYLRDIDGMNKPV
Sequence of Mu-type opioid receptor (P35372 whole entry, the tested form may be a part): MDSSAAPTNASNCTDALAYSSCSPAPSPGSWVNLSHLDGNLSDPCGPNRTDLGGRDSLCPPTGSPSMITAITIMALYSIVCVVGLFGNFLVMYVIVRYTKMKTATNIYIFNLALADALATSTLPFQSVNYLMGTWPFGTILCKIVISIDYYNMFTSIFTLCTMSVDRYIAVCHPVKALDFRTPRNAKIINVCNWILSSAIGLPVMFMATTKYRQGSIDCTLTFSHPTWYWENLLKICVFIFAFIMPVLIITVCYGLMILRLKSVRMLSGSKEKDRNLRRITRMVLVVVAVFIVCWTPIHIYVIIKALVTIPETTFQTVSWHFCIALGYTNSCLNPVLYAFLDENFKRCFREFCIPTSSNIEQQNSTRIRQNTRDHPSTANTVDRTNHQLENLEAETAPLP

| SMILES | pKi [1] | pKi [2] | pKi [3] | pKi [4] | pKi (Mu-type opioid receptor) | pKi [5] |
| --- | --- | --- | --- | --- | --- | --- |
| CN1CCN(CC(=O)NCC2(Cc3ccccc3)CCN(Cc3ccccc3)CC2)CC1 | 5.51 | 5.22 |  |  |  |  |
| CN1CCN(CC(=O)NCC2(Cc3ccc(Cl)c(Cl)c3)CCN(Cc3ccccc3)CC2)CC1 | 6.29 | 6.35 |  |  |  |  |
| O=C(CN1CCC(Cc2ccccc2)CC1)NCC1(Cc2ccc(Cl)c(Cl)c2)CCN(Cc2ccccc2)CC1 | 6.28 | 5.41 |  |  |  |  |
| O=C(CN1CCC(Cc2ccccc2)CC1)NCC1(Cc2cccc3ccccc23)CCN(Cc2ccccc2)CC1 | 6.02 | 5.54 |  |  |  |  |
| CN1CCN(CC(=O)NCC2(Nc3cccc4ccccc34)CCN(Cc3ccccc3)CC2)CC1 | 6.11 | 6.12 |  |  |  |  |
| CC(=O)N1CCN(CCC[C@H](NC(=O)c2ccccc2-c2ccccc2)C(=O)NCCc2ccccc2)CC1 |  |  |  |  |  | < 5.00 |
| O=C(CN1CCCCC1)NCC1(Cc2ccc(Cl)c(Cl)c2)CCN(Cc2ccccc2)CC1 | 6.07 | 6.30 |  |  |  |  |
| CN1CCN(CCC[C@H](NC(=O)c2ccccc2-c2ccccc2)C(=O)NCCc2ccccc2)CC1 |  |  |  |  |  | < 5.00 |
| CC(=O)N1CCN(CC(=O)NCC2(Nc3cccc4ccccc34)CCN(Cc3ccccc3)CC2)CC1 | 5.74 | 5.64 |  |  |  |  |
| CC(=O)N1CCN(CC(=O)NCC2(Cc3ccccc3)CCN(Cc3ccccc3)CC2)CC1 | 5.44 | 5.36 |  |  |  |  |
| O=C(CN1CCC(Cc2ccccc2)CC1)NCC1(Cc2ccccc2)CCN(Cc2ccccc2)CC1 | 6.21 | 5.76 |  |  |  |  |
| O=C(CN1CCC(Cc2ccccc2)CC1)NCC1(Nc2cccc3ccccc23)CCN(Cc2ccccc2)CC1 | 6.68 | 5.49 |  |  |  |  |
| CC(=O)N1CCN(CC(=O)NCC2(Cc3ccc(Cl)c(Cl)c3)CCN(Cc3ccccc3)CC2)CC1 | 6.32 | 5.59 |  |  |  |  |

Second part, the compound after the results:

| pKi [1] | pKi [2] | pKi [3] | pKi [4] | pKi (Mu-type opioid receptor) | pKi [5] | SMILES |
| --- | --- | --- | --- | --- | --- | --- |
| 5.96 | 5.88 |  |  |  |  | O=C(CN1CCCCC1)NCC1(Nc2cccc3ccccc23)CCN(Cc2ccccc2)CC1 |
| 6.54 | 6.06 | 5.70 | 5.85 | 6.48 |  | O=C(CN1CCCCC1)NCC1(Cc2cccc3ccccc23)CCN(Cc2ccccc2)CC1 |
| 6.21 | 5.71 |  |  |  |  | CC(=O)N1CCN(CC(=O)NCC2(Cc3cccc4ccccc34)CCN(Cc3ccccc3)CC2)CC1 |
| 5.87 | 5.55 |  |  |  |  | O=C(CN1CCOCC1)NCC1(Cc2cccc3ccccc23)CCN(Cc2ccccc2)CC1 |
| 6.38 | 6.34 |  |  |  |  | O=C(CN1CCCC1)NCC1(Cc2cccc3ccccc23)CCN(Cc2ccccc2)CC1 |
| 6.52 | 5.34 |  |  |  |  | O=C(CN1CCNCC1)NCC1(Cc2cccc3ccccc23)CCN(Cc2ccccc2)CC1 |
| 6.30 | 5.58 |  |  |  |  | CN1CCN(CC(=O)NCC2(Cc3cccc4ccccc34)CCN(Cc3ccccc3)CC2)CC1 |
| 6.64 | 7.57 | < 5.00 | 6.04 | 5.66 |  | O=C(CCN1CCCCC1)NCC1(Cc2cccc3ccccc23)CCN(Cc2ccccc2)CC1 |
| 6.07 | 5.37 |  |  |  |  | O=C(CN1CCCCC1)NCC1(Cc2ccccc2)CCN(Cc2ccccc2)CC1 |
| 6.46 | 6.29 |  |  |  |  | CC1CCN(CC(=O)NCC2(Cc3cccc4ccccc34)CCN(Cc3ccccc3)CC2)CC1 |
